Experimental data from patent publication US20220259196A1, “2-AMINOPYRIMIDINE COMPOUND AND USES THEREOF” (Shenyang Pharmaceutical University, priority 2019, published 2022).

Tests used:
[1] = tested on: human erythroleukemia cells HEL; assay: anti-tumor cell proliferation activity (CCK-8), HEL; format: cell-based; settings: 72 hours incubation
Description: (§1) The compound of the 2-aminopyrimidine skeleton of the above formula I according to the present invention was tested in vitro to inhibit the activity of human erythroleukemia cells HEL and human myeloid monocytic leukemia cells Molm-13. The control compounds Pacritinib and Fedratinib were prepared by our research group.
(§2) After the cells are resuscitated and passaged 2-3 times to stable state, 10 μL of the cell suspension was pipetted to a cell counting plate for counting, and the cell concentration was adjusted to 10×10^4 cells/mL. No cell solution was added to the outermost wells of the 96-well plate, and 100 μL of cell suspension was added to each of the remaining wells. 100 μL of medium was added to wells B2-B7 as a control group, and other wells were added with different concentrations of the compounds to be tested. After 72 hours of incubation in the incubator, 200 μL, of fresh medium was added to well A1 as a blank group, and then 20 µL of CCK-8 solution was added to each well, and the incubation continued for 4 hours. The 96-well plate was shaken at room temperature for 3 minutes, and then the absorbance at 450 nm wavelength was measured with a microplate reader, and the inhibition rate of cell growth was calculated according to the following formula:
(§3) Inhibition rate (%)=[(A control−A addition)/(A control−A blank)]×100
(§4) IC50 is the drug concentration required to inhibit half of the cell growth. According to the results of drug concentration and inhibition rate, GraphPad Prism version 5 software is used to calculate IC50 through the dose-effect curve.

[2] = target: T1, FLT3 (Homo sapiens, UniProt P36888); assay: in vitro FLT3 kinase activity test, Mobility Shift Assay; format: biochemical; settings: compound concentration 0.1 μM; read-out: Percentage of inhibition against FLT3 at 0.1 μM
T1 sequence (P36888 27-993): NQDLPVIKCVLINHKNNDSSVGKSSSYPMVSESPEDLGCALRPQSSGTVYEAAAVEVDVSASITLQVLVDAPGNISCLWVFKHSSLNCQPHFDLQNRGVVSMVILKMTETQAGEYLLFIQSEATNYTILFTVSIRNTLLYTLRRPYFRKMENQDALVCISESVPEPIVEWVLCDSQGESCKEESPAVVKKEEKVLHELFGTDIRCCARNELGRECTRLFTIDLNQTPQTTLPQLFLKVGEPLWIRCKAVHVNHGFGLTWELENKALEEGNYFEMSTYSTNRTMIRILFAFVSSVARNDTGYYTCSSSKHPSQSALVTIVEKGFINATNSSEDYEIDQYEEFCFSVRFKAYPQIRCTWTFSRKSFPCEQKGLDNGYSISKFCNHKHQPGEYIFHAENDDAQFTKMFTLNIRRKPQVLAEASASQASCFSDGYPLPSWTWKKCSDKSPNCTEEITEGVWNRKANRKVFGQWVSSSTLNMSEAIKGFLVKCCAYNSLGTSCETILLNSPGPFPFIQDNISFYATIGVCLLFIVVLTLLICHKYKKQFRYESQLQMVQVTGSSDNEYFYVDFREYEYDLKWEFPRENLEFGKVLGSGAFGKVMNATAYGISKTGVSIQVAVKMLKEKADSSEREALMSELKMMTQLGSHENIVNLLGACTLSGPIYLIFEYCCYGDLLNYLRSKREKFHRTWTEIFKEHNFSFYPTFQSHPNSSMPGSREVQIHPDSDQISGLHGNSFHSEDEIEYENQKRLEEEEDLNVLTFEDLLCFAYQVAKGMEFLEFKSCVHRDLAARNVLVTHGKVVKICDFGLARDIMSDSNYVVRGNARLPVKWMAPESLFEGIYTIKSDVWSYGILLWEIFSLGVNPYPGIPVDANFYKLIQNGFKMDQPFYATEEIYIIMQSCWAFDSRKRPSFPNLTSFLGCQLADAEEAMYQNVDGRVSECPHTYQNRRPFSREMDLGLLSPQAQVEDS
Description: (§5) The in vitro JAK2 and FLT3 kinase activity test was performed on the compounds of the 2-aminopyrimidine backbone of the above formula I (concentration 0.1 μM) according to the present invention using Mobility Shift Assay.
(§6) The kinase buffer was composed of 50 mM HEPEs (pH 7.5) and 0.0015% BRIJ-35. The stop buffer contained a mixture of 100 mM HEPES (pH 7.5), 0.015% BRIJ-35, 0.2% coating reagent #3 and 50 mM EDTA. The compound to be tested was diluted with 100% DMSO to 50 times the highest concentration required in the reaction. The dilution of compound to be tested (100 μL) was transferred to the wells of a 96-well plate. […] was added to two wells of the plate as a control group and the plate was marked as the source plate. 10 μL of compound was transferred from the source plate to a new 96-well plate to prepare an intermediate plate. In the intermediate plate, an additional 90 μL of kinase buffer was added to each well. The intermediate plate was shaken for 10 minutes, and then 5 μL of each well of the 96-well intermediate plate was copied to a 384-well plate as an analysis plate. The prepared enzyme solution was added to each well of the 384-well plate, then incubated at room temperature for 10 minutes, and then 10 μL of the prepared peptide solution (FAM-labeled peptide and ATP in kinase-based buffer) was added. The sample was incubated at 28° C. for 1 hours, and then 25 μL of buffer was added. The conversion data from the Caliper program was copied and converted to the inhibition rate.
(§7) Inhibition rate (%)=(max−conversion)/(max−min)×100.

[3] = target: JAK2 (Homo sapiens, UniProt O60674); assay: in vitro JAK2 kinase activity test, Mobility Shift Assay; format: biochemical; settings: compound concentration 0.1 μM; read-out: Percentage of inhibition against JAK2 at 0.1 μM
Sequence of JAK2 (O60674 whole entry): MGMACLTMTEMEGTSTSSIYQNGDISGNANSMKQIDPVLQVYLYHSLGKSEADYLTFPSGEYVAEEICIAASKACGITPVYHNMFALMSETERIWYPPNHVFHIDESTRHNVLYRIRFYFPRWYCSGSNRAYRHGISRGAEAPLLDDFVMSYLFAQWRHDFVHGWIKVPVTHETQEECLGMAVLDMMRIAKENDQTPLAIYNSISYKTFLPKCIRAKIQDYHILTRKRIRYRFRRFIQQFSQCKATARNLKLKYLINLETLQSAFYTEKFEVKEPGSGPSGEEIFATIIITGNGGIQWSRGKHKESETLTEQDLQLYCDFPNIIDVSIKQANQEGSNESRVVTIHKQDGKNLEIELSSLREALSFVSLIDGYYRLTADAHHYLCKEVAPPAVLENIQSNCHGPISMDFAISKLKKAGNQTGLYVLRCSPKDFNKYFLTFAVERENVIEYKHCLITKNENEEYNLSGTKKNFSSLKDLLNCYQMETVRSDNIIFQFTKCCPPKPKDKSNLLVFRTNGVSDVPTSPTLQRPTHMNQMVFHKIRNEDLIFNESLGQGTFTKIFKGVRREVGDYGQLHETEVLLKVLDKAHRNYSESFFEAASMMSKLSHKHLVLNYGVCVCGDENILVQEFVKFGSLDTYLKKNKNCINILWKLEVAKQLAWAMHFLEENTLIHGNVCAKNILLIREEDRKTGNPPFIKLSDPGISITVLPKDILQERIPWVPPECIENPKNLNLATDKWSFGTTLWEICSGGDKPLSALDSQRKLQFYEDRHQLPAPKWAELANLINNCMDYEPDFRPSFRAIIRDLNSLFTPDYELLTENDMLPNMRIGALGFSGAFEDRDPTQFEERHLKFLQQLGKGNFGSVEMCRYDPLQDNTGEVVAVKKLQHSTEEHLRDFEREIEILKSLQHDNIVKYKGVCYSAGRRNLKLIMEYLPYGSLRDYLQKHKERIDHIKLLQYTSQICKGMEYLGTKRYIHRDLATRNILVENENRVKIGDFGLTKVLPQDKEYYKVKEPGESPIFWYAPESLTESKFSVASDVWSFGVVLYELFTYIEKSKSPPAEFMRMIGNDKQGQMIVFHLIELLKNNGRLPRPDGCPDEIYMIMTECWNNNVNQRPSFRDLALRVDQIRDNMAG
Description: as §5, with “Assay. The control compounds Pacritinib and Fedratinib were prepared by our research group.” for “Assay.”
as §6, §7

[4] = tested on: human myeloid monocytic leukemia cells Molm-13; assay: anti-tumor cell proliferation activity (CCK-8), Molm-13; format: cell-based; settings: Molm-13 cells, 72 hours incubation
Description: as §1, §2, §3, §4

Compound | IC50 [1] [nM] | inhibition at 0.1 µM [2] [%] | inhibition at 0.1 µM [3] [%] | IC50 [4] [nM]
CC(=O)c1ccc(NC(=O)N2CCN(c3ccnc(Nc4ccc(N5CCOCC5)cc4)n3)CC2)cc1 [Example 6, N-(4-acetylphenyl)-4-(2-{[4-(morpholin-4-yl)phenyl]amino}pyrimidin-4-yl)piperazine-1-carboxamide] | 4300 | 72.3 | 76.7 | 77
CC(=O)c1ccc(NC(=O)N2CCN(c3nc(Nc4ccc(N5CCOCC5)cc4)ncc3C(F)(F)F)CC2)cc1 [Example 26, N-(4-acetylphenyl)-4-(5-trifluoromethyl-2-{[4-(morpholin-4-yl)phenyl]amino}pyrimidin-4-yl)piperazine-1-carboxamide] | 4600 | 82.5 | 74.6 | 83
CC(=O)c1ccc(NC(=O)N2CCC(Nc3nc(Nc4ccc(N5CCOCC5)cc4)ncc3C)CC2)cc1 [Example 32, N-(4-acetylphenyl)-4-[(5-methyl-2-{[4-(morpholin-4-yl)phenyl]amino}pyrimidin-4-yl)amino]piperidine-1-carboxamide] | 6700 | 78.6 | 80.5 | 350
CC(=O)c1ccc(NC(=O)C2CCN(c3nc(Nc4ccc(N5CCOCC5)cc4)ncc3C)CC2)cc1 [Example 33, N-(4-acetylphenyl)-1-(5-methyl-2-{[4-(morpholin-4-yl)phenyl]amino}pyrimidin-4-yl)piperidine-4-carboxamide] | 1700 | 97 | 74.3 | 62
C1=C/COCc2cc(ccc2OCCN2CCCC2)Nc2nccc(n2)-c2cccc(c2)COC/1 [Pacritinib, reference compound] | 1100 |  | 92 | 23

The next compounds have a lower IC50 [1] than those just listed; values first:

IC50 [1] [nM] | inhibition at 0.1 µM [2] [%] | inhibition at 0.1 µM [3] [%] | IC50 [4] [nM] | Compound
900 | 95.2 | 88.5 | 72 | Cc1cnc(Nc2ccc(N3CCOCC3)cc2)nc1N1CCN(C(=O)Nc2ccc(C#N)cc2)CC1 [Example 20, N-(4-cyanophenyl)-4-(5-methyl-2-{[4-(morpholin-4-yl)phenyl]amino}pyrimidin-4-yl)piperazine-1-carboxamide]
800 | 99.1 | 81.8 | 42 | CC(=O)c1ccc(NC(=O)N2CCN(c3nc(Nc4ccc(N5CCOCC5)cc4)ncc3C)CC2)cc1 [Example 22, N-(4-acetylphenyl)-4-(5-methyl-2-{[4-(morpholin-4-yl)phenyl]amino}pyrimidin-4-yl)piperazine-1-carboxamide]
890 | 88.7 | 95.2 | 68 | Cc1cnc(Nc2ccc(OCCN3CCCC3)cc2)nc1Nc1cccc(S(=O)(=O)NC(C)(C)C)c1 [Fedratinib, reference compound]
